Literature values in patent US20160331794A1, “COMPOSITION FOR USE IN THE TREATMENT OF PERSISTENT COUGH” (ABOCA S.P.A SOCIETÁ AGRICOLA, priority 2013, published 2016).

Assays:
cough = settings: Lee et al. 2000; cited from earlier work
night cough in children = settings: Yoder et al. 2006; cited from earlier work

Row | Structure (SMILES) | efficacy in the treatment of coughs versus placebo (cough) | diminishing night cough in children versus placebo (night cough in children)
1 | COc1ccc2c(c1)[C@]13CCCC[C@@H]1[C@H](C2)N(C)CC3 [dextromethorphan] | only marginally better than the placebo | Neither dextromethorphan nor diphenhydramine have been found to be better than the placebo
2 | CN(C)CCOC(c1ccccc1)c1ccccc1 [diphenhydramine] |  | Neither dextromethorphan nor diphenhydramine have been found to be better than the placebo
